biological target: mTOR/GbL/Raptor (mTORC1) (Homo sapiens, UniProt P42345); test: mTOR/GbL/Raptor (mTORC1) ELISA assay; assay type: biochemical; settings: phosphorylation of 4E-BP1; 0.2 nM mTORC1, 10 μM ATP; read-out: IC50 in this assay (mTORC1 ELISA)
Procedure, shortened: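 Human mTORC1 (0.2 nM) phosphorylated 50 nM His-tagged 4E-BP1 with 10 µM ATP in HEPES pH 7.2 containing 10 mM MnCl2, 120 min at ambient temperature. Substrate was captured on Ni-chelate plates; phospho-4E-BP1 was detected by primary antibody and HRP secondary with luminescence.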

IC50 [nM] | Structure (SMILES)
10 to 50 | CNS(=O)(=O)c1cc(-c2ccc3c(c2)CN(c2ncnc(C)c2Cc2ccc(F)cc2)CCO3)cnc1N [Example 363, 2-amino-5-(4-{5-[(4-fluorophenyl)methyl]-6-methylpyrimidin-4-yl}-2,3,4,5-tetrahydro-1,4-benzoxazepin-7-yl)-N-methylpyridine-3-sulfonamide]
≤ 10 | CC[C@H](C)NCc1nc2c(c(N3CCOc4ccc(-c5cnc6nc(C)[nH]c6c5)cc4C3)n1)CC(C)(C)CC2 [Example 304, (2S)-N-({6,6-dimethyl-4-[7-(2-methyl-1H-imidazo[4,5-b]pyridin-6-yl)-2,3-dihydro-1,4-benzoxazepin-4(5H)-yl]-5,6,7,8-tetrahydroquinazolin-2-yl}methyl)butan-2-amine]
≤ 10 | CC1(C)C=Cc2ncnc(N3CCOc4ccc(-c5ccc(-c6ncc[nH]6)cc5)cc4C3)c2C1 [Example 479, 4-(6,6-dimethyl-5,6-dihydroquinazolin-4-yl)-7-[4-(1H-imidazo-2-yl)phenyl]-2,3,4,5-tetrahydro-1,4-benzoxazepine]
10 to 50 | Cc1nc2cc(-c3ccc4c(c3)CN(c3nc([C@H]5CCCN5)nc5c3CC(C)(C)CC5)CCO4)ccc2[nH]1 [Example 505, 4-{6,6-dimethyl-2-[(2R)-pyrrolidin-2-yl]-5,6,7,8-tetrahydroquinazolin-4-yl}-7-(2-methyl-1H-benzimidazol-5-yl)-2,3,4,5-tetrahydro-1,4-benzoxazepine]
50 to 250 | COc1cc2ncnc(N3CCOc4ccc(-c5ccc6nc(C)[nH]c6c5)cc4C3)c2cc1Br [Example 43, 4-[6-bromo-7-(methyloxy)quinazlolin-4-yl]-7-(2-methyl-1H-benzimidazol-6-yl)-2,3,4,5-tetrahydro-1,4-benzoxazepine]
≤ 10 | Cc1nc2ccc(-c3ccc4c(c3)CN(c3ncnc(C)c3Cc3cccc(F)c3)CCO4)cc2[nH]1 [Example 72, 4-{5-[(3-fluorophenyl)methyl]-6-methylpyrimidin-4-yl}-7-(2-methyl-1H-benzimidazol-6-yl)-2,3,4,5-tetrahydro-1,4-benzoxazepine]
250 to 1000 | COc1ccc2c(N3CCOc4ccc(-c5ccc6nc(C)[nH]c6c5)cc4C3)nc(C)nc2c1 [Example 258, 7-(2-methyl-1H-benzimidazol-6-yl)-4-[2-methyl-7-(methyloxy)quinoazolin-4-yl]-2,3,4,5-tetrahydro-1,4-benzoxazepine]
≤ 10 | CCC1CCc2ncnc(N3CCOc4ccc(-c5cnc6nc(N)[nH]c6c5)cc4C3)c2C1 (centres unmarked) [Example 178, 6-[4-(6-ethyl-5,6,7,8-tetrahydroquinazolin-4-yl)-2,3,4,5-tetrahydro-1,4-benzoxazepin-7-yl]-1H-imidazo[4,5-b]pyridin-2-amine]
10 to 50 | Cc1nc2ccc(-c3ccc4c(c3)CN(c3ccnc(C)c3Cc3ccccc3)CCO4)cc2[nH]1 [Example 101, 7-(2-methyl-1H-benzimidazol-6-yl)-4-[2-methyl-3-(phenylmethyl)pyridin-4-yl]-2,3,4,5-tetrahydro-1,4-benzoxazepine]
≤ 10 | C=C[C@H]1CCCc2c(ncnc2N2CCOc3ccc(-c4cnc5nc(C)[nH]c5c4)cc3C2)C1 [Example 489, 4-[(8S)-8-ethenyl-6,7,8,9-tetrahydro-5H-cyclohept[d]pyrimidin-4-yl]-7-(2-methyl-1H-imidazo[4,5-b]pyridin-6-yl)-2,3,4,5-tetrahydro-1,4-benzoxazepine]
250 to 1000 | Cc1nc(CN(C)C)nc(N2CCOc3ccc(-c4cnc5sc(N)nc5c4)cc3C2)c1Cl [Example 678, 6-(4-{5-chloro-2-[(dimethylamino)methyl]-6-methylpyrimidin-4-yl}-2,3,4,5-tetrahydro-1,4-benzoxazepin-7-yl)[1,3]thiazolo[5,4-b]pyridin-2-amine]
1000 to 2000 | Cc1nc2ccc(-c3ccc4c(c3)CN(c3ncnc(C)c3C)CCO4)cc2[nH]1 [Example 48, 4-(5,6-dimethylpyrimidin-4-yl)-7-(2-methyl-1H-benimidazol-6-yl)-2,3,4,5-tetrahydro-1,4-benzoxazepine]
250 to 1000 | CC1(C)CCc2ncnc(N3CCOc4ccc(-c5cnc(Nc6ccccc6)c(NS(C)(=O)=O)c5)cc4C3)c2C1 [Example 629, N-{5-[4-(6,6-dimethyl-5,6,7,8-tetrahydroquinazolin-4-yl)-2,3,4,5-tetrahydro-1,4-benzoxazepin-7-yl]-2-(phenylamino)pyridin-3-yl}methanesulfonamide]

The next lines start with the compound.

Structure (SMILES) | IC50 [nM]
Cc1nc2ccc(-c3ccc4c(c3)CN(c3ncnc5cc(Cl)c(I)cc35)CCO4)cc2[nH]1 [Example 35, 4-(7-chloro-6-iodoquinazolin-4-yl)-7-(2-methyl-1H-benzimidazol-6-yl)-2,3,4,5-tetrahydro-1,4-benzoxazepine] | 50 to 250
Cc1nc2ccc(-c3ccc4c(c3)CN(c3nccc5ccccc35)CCO4)cc2[nH]1 [Example 105, 4-isoquinolin-1-yl-7-(2-methyl-1H-benzimidazol-6-yl)-2,3,4,5-tetrahydro-1,4-benzoxazepine] | 50 to 250
COc1ccc2c(N3CCOc4ccc(-c5ccc(OC)c(OC)c5)cc4C3)nc(CN(C)C)nc2c1 [Example 333, 1-[4-{7-[3,4-bis(methyloxy)phenyl]-2,3-dihydro-1,4-benzoxazepin-4(5H)-yl}-7-(methyloxy)quinazolin-2-yl]-N,N-dimethylmethanamine] | ≥ 2000
COc1ccc2c(N3CCOc4ccc(-c5cnc6nc[nH]c6c5)cc4C3)nc(C)nc2c1 [Example 542, 7-(1H-imidazo[4,5-b]pyridin-6-yl)-4-[2-methyl-7-(methyloxy)quinazolin-4-yl]-2,3,4,5-tetrahydro-1,4-benzoxazepine] | 50 to 250
CCN(CC)Cc1nc(C)c(C(C)C)c(N2CCOc3ccc(-c4ccc5nc(C)[nH]c5c4)cc3C2)n1 [Example 685, N-ethyl-N-({4-methyl-6-[7-(2-methyl-1H-benzimidazol-5-yl)-2,3-dihydro-1,4-benzoxazepin-4(5H)-yl]-5-(1-methylethyl)pyrimidin-2-yl}methyl)ethanamine] | 50 to 250
CN(C)Cc1nc2ncc(-c3ccc4c(c3)CN(c3ncnc5c3CC(C)(C)CC5)CCO4)cc2[nH]1 [Example 357, 1-{6-[4-(6,6-dimethyl-5,6,7,8-tetrahydroquinazolin-4-yl)-2,3,4,5-tetrahydro-1,4-benzoxazepin-7-yl]-1H-imidazo[4,5-b]pyridin-2-yl}-N,N-dimethylmethanamine] | 250 to 1000
CC[C@H]1CCc2c(nc(C)nc2N2CCOc3ccc(-c4cnc5nc(NC(=O)OC)[nH]c5c4)cc3C2)C1 [Example 577, methyl (6-{4-[(7S)-7-ethyl-2-methyl-5,6,7,8-tetrahydroquinazolin-4-yl]-2,3,4,5-tetrahydro-1,4-benzoxazepin-7-yl}-1H-imidazo[4,5-b]pyridin-2-yl)carbamate] | 10 to 50
Cc1nc(CN(C)C)nc(N2CCOc3ccc(-c4ccc5scnc5c4)cc3C2)c1Cc1ccc(F)cc1 [Example 336, 1-{4-[7-(1,3-benzothiazol-5-yl)-2,3-dihydro-1,4-benzoxazepin-4(5H)-yl]-5-[(4-fluorophenyl)methyl]-6-methylpyrimidin-2-yl}-N,N-dimethylmethanamine] | 50 to 250
COCCOc1cc(-c2ccc3c(c2)CN(c2nc(CN(C)C)nc4c2CC(C)(C)CC4)CCO3)ccc1OC [Example 648, 1-(6,6-dimethyl-4-{7-[4-(methyloxy)-3-{[2-(methyloxy)ethyl]oxy}phenyl]-2,3-dihydro-1,4-benzoxazepin-4(5H)-yl}-5,6,7,8-tetrahydroquinazolin-2-yl)-N,N-dimethylmethanamine] | 250 to 1000
Cc1nc(CNCCF)nc(N2CCOc3ccc(-c4cnc5sc(N)nc5c4)cc3C2)c1C(C)C [Example 680, 6-{4-[2-{[(2-fluoroethyl)amino]methyl}-6-methyl-5-(1-methylethyl)pyrimidin-4-yl]-2,3,4,5-tetrahydro-1,4-benzoxazepin-7-yl}[1,3]thiazolo[5,4-b]pyridin-2-amine] | ≤ 10
COc1ccc(-c2ccc3c(c2)CN(c2nc(CN(C)C)nc4c2CC(C)(C)CC4)CCO3)cc1Cl [Example 324, 1-(4-{7-[3-chloro-4-(methyloxy)phenyl]-2,3-dihydro-1,4-benzoxazepin-4(5H)-yl}-6,6-dimethyl-5,6,7,8-tetrahydroquinazolin-2-yl)-N,N-dimethylmethanamine] | 250 to 1000
Cc1ccc2ncnc(N3CCOc4ccc(-c5cnc6nc(N)[nH]c6c5)cc4C3)c2c1 [Example 218, 6-[4-(6-methylquinazolin-4-yl)-2,3,4,5-tetrahydro-1,4-benzoxazpin-7-yl]-1H-imidazo[4,5-b]pyridin-2-amine] | ≤ 10
COc1ccccc1Cc1c(C)ncnc1N1CCOc2ccc(-c3ccc4nc(C)[nH]c4c3)cc2C1 [Example 84, 7-(2-methyl-1H-benzimidazol-6-yl)-4-(6-methyl-5-{[2-(methyloxy)phenyl]methyl}pyrimidin-4-yl)-2,3,4,5-tetrahydro-1,4-benzoxazepine] | 10 to 50
Cc1nc2ncc(-c3ccc4c(c3)CN(c3ncnc5c3CCC(C)(C)C5)CCO4)cc2[nH]1 [Example 484, 4-(7,7-dimethyl-5,6,7,8-tetrahydroquinazolin-4-yl)-7-(2-methyl-1H-imidazo[4,5-b]pyridin-6-yl)-2,3,4,5-tetrahydro-1,4-benzoxazepine] | ≤ 10
Cc1nc2ccc(-c3ccc4c(c3)CN(c3ncnc5c3CCN(Cc3ccccc3)C5)CCO4)cc2[nH]1 [Example 60, 7-(2-methyl-1H-benzimidazol-6-yl)-4-[7-(phenylmethyl)-5,6,7,8-tetrahydropyrido[3,4-d]pyrimidin-4-yl]-2,3,4,5-tetrahydro-1,4-benzoxazepine] | 50 to 250
CC1(C)CCc2ncnc(N3CCOc4ccc(-c5cnc(N)c(S(=O)(=O)NCCCO)c5)cc4C3)c2C1 [Example 375, 2-amino-5-[4-(6,6-dimethyl-5,6,7,8-tetrahydroquinazolin-4-yl)-2,3,4,5-tetrahydro-1,4-benzoxazepin-7-yl]-N-(3-hydroxypropyl)pyridine-3-sulfonamide] | ≤ 10

From US8648066B2 (Exelixis, Inc., priority 2009, dated 2014)
